Broadly, the IC50 is the concentration at which inhibition is half-maximal.

T1 sequence (Q9H2K2 873-1166): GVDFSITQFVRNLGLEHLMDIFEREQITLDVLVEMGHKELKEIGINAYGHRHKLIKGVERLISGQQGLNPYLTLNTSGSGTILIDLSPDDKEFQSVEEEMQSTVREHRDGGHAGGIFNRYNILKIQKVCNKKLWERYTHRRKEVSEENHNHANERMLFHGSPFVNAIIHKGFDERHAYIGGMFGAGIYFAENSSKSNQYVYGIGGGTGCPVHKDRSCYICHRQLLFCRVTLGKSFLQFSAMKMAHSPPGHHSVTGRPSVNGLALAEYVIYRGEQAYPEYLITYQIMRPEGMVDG

The experiment addresses T1, GST-tagged Tnks-2 (873-1166 aa) (Homo sapiens, UniProt Q9H2K2).
T1 construct: GST-tagged Tnks-2 (873-1166 aa, prepared in-house); made in house
Nature of the experiment: TNKS2 activity ELISA (autoparsylation assay). The experiment is classed as biochemical. In short, it runs like this: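 Each GST-tagged enzyme (20 ng/well) was captured overnight at 4 °C on glutathione plates, then auto-ADP-ribosylated with 10 μM biotin-NAD for 1 h at 30 °C, pH 7.7, 0.5% DMSO, compound at 10 concentrations. Streptavidin-HRP chemiluminescence measured the signal. IC50 relative to inhibitor-free reaction, with 5 μM XAV-939 defining zero.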
For orientation: In an ELISA, binding on a coated surface is turned into a signal by an enzyme label.
Compound `CCN(C(=O)N1CCC(C(=O)c2cccc(C)c2)CC1)c1ccc(OC)cc1` [Compound A26, 4-(3-methyl-benzoyl)-piperidine-1-carboxylic acid ethyl-(4-methoxy-phenyl)amide] registered an IC50 below 300 nM. With `COc1ccc(N(C)C(=O)N2CCC(C(=O)c3ccc(C)cc3)CC2)cc1` [Compound A5, 4-(4-methyl-benzoyl)-piperidine-1-carboxylic acid (4-methoxy-phenyl)-methylamide], the IC50 was below 300 nM. `COc1ccc(N(CCO)C(=O)N2CCC(C(=O)c3ccccc3)CC2)cc1` [Compound A15, 4-benzoyl-piperidine-1-carboxylic acid (2-hydroxy-ethyl)-(4-methoxy-phenyl)amide]: the IC50 was below 300 nM. As to `Cc1ccc(C(=O)C2CCN(C(=O)N3CCc4ccccc43)CC2)cc1` [Compound A17, (2,3-dihydro-indol-1-yl)-[4-(4-methyl-benzoyl)-piperidin-1-yl]-methanone], the IC50 was below 300 nM.

In turn, `CCN(C(=O)N1CCC(C(=O)c2ccc(OC)c(C)c2)CC1)c1ccc(OC)cc1` [Compound A24, 4-(4-methoxy-3-methyl-benzoyl)-piperidine-1-carboxylic acid ethyl-(4-methoxy-phenyl)-amide] registered an IC50 below 300 nM. Regarding `COc1ccc(N(C)C(=O)N2CCC(C(=O)c3ccc(OC)c(F)c3)CC2)cc1` [Compound A29, 4-(3-fluoro-4-methoxy-benzoyl)-piperidine-1-carboxylic acid (4-methoxy-phenyl)-methyl-amide], the IC50 is below 300 nM. The compound `COc1ccc(C(=O)C2CCN(C(=O)N(C)c3ccc(OC)cc3)CC2)cc1` [Compound A6, 4-(4-methoxy-benzoyl)-piperidine-1-carboxylic acid (4-methoxy-phenyl)methyl-amide] came in with an IC50 below 300 nM. The value for `COc1ccc(N(C)C(=O)N2CCC(C(=O)c3cccc(C)c3)CC2)cc1` [Compound A25, 4-(3-methyl-benzoyl)-piperidine-1-carboxylic acid (4-methoxy-phenyl)methyl-amide] was below 300 nM; that for `COc1ccc(N(C)C(=O)N2CCC(C(=O)c3ccc(F)cc3)CC2)cc1` [Compound A8, 4-(4-fluoro-benzoyl)-piperidine-1-carboxylic acid (4-methoxy-phenyl)-methylamide] was below 300 nM. In turn, `COc1ccc(C(=O)C2CCN(C(=O)N3CCc4ccccc43)CC2)cc1` [Compound A18, (2,3-dihydro-indol-1-yl)-[4-(4-methoxy-benzoyl)-piperidin-1-yl]-methanone] displayed an IC50 below 300 nM. As for `CCN(C(=O)N1CCC(C(=O)c2ccccc2)CC1)c1ccc(OC)cc1` [Compound A14, 4-benzoyl-piperidine-1-carboxylic acid ethyl-(4-methoxy-phenyl)-amide], the IC50 is below 300 nM. Regarding `CN(C(=O)N1CCC(C(=O)c2ccccc2)CC1)c1ccc(F)cc1` [Compound A13, 4-benzoyl-piperidine-1-carboxylic acid (4-fluoro-phenyl)-methyl-amide], the half-maximal inhibitory concentration (IC50) is below 300 nM.

With `CN(C(=O)N1CCC(C(=O)c2ccc(NS(C)(=O)=O)cc2)CC1)c1ccccc1` [Compound A38, 4-(4-methanesulfonylamino-benzoyl)-piperidine-1-carboxylic acid methyl-phenyl-amide], the IC50 is below 300 nM. To `CCN(C(=O)N1CCC(C(=O)c2cccc(OC)c2)CC1)c1ccc(OC)cc1` [Compound A28, 4-(3-methoxy-benzoyl)-piperidine-1-carboxylic acid ethyl-(4-methoxy-phenyl)amide] belongs below 300 nM. In turn, `O=C(c1ccccc1)C1CCN(C(=O)N2CCc3ccccc32)CC1` [Compound A16, (4-benzoyl-piperidin-1-yl)-(2,3-dihydro-indol-1-yl)-methanone] gave an IC50 below 300 nM. Consider `Cc1cccc(N(C)C(=O)N2CCC(C(=O)c3ccccc3)CC2)c1` [Compound A1, 4-benzoyl-piperidine-1-carboxylic acid methyl-m-tolyl-amide], for which the IC50 was below 300 nM.

Regarding `CCOC(=O)CN(C(=O)N1CCC(C(=O)c2ccc(OC)cc2)CC1)c1ccccc1` [Compound A40, {[4-(4-methoxy-benzoyl)-piperidine-1-carbonyl]-phenyl-amino}-acetic acid ethyl ester], the IC50 is below 300 nM. The value for `COc1ccc(N(C)C(=O)N2CCC(C(=O)c3cccc(OC)c3)CC2)cc1` [Compound A27, 4-(3-methoxy-benzoyl)-piperidine-1-carboxylic acid (4-methoxy-phenyl)methyl-amide] was below 300 nM; that for `COc1ccc(N(C)C(=O)N2CCC(C(=O)c3cccc(F)c3)CC2)cc1` [Compound A7, 4-(3-fluoro-benzoyl)-piperidine-1-carboxylic acid (4-methoxy-phenyl)-methylamide] was below 300 nM. Compound `COc1ccc(N(C)C(=O)N2CCC(C(=O)c3ccccc3)CC2)cc1` [Compound A4, 4-benzoyl-piperidine-1-carboxylic acid (4-methoxy-phenyl)-methyl-amide] had an IC50 below 300 nM. `Cc1ccc(N(C)C(=O)N2CCC(C(=O)c3ccccc3)CC2)cc1` [Compound A2, 4-benzoyl-piperidine-1-carboxylic acid methyl-p-tolyl-amide] showed an IC50 below 300 nM.

For the origin of these results see patent publication US9770446B2, “Piperidine urea derivatives” (MERCK PATENT GMBH, priority 2013, dated 2017).
